The results in this text go back to patent US20260125375A1 (Pfizer Inc., priority 2022, published 2026).

Read-outs that look alike come from different tables or passages of the source. Some results are limits rather than exact numbers.

One assay concerns the target T1, C-CBL (residues 46-435) (Homo sapiens, UniProt P22681).
T1 construct: Purified CBL-B (residues 36-427) and C-CBL (residues 46-435) proteins from baculovirus-infected insect cells; made in house; host or cells: baculovirus-infected insect cells
T1 sequence (P22681 46-435): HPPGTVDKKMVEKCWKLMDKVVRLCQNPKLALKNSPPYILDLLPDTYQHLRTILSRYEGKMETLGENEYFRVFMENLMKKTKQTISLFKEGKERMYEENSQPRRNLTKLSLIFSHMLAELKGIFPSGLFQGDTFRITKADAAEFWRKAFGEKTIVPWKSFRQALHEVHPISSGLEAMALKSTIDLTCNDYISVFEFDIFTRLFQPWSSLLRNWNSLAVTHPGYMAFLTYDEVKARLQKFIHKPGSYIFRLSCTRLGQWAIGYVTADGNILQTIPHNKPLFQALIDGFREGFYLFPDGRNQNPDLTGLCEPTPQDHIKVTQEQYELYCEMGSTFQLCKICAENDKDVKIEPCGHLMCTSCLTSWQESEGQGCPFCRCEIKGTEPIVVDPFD
The assay is described as follows: Ligand Displacement Assay (LDA), HTRF competitive binding against BODIPY-labeled fluorescent tracer, C-CBL. To be noted: geometric mean of the number of tests, read-out: C-CBL Ki (nM) GMean. The method in brief: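 Ki values, given as geometric means of repeated tests, come from TR-FRET displacement of a BODIPY-labelled tracer from terbium-streptavidin-bound, AviTag-biotinylated protein made in baculovirus-infected insect cells. Compounds ran as three-fold dilutions in duplicate, […], 2% DMSO.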

The next assay addresses T2, CBL-B (Homo sapiens, UniProt Q13191).
T2 construct: endogenous in cells; host or cells: Jurkat HiBit-IL2 reporter cells, C-CBL knocked out by CRISPR
The assay is described as follows: Jurkat HiBit-IL2 assay (c-CBL KO), reporter cell line expressing CBL-B only. The assay is classed as cell-based. Conditions: geometric mean, read-out: C-CBL KO EC50 (nM) GMean. The method, boiled down: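 IL-2 secretion was measured by HiBiT luminescence after 1 h compound exposure (0.1% DMSO) and 4 h TCR/CD28 stimulation (final anti-CD3 1 μg/ml, anti-CD28 2 μg/ml, 37 °C) of Jurkat reporters lacking c-CBL or CBL-B. EC50 came from fold-of-effect versus stimulated-only cells, as geometric means across tests.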

Setting [1] is: c-CBL KO (CBL-B only), anti-CD3/anti-CD28 stimulation 4 hours, Table 16a.
Setting [2] is: C-CBL KO (expressing CBL-B only), Table 16b (further repetition).

For the compound `C[C@@H](c1nc(C(F)(F)F)cc2c(-c3cccc(C4(Cc5nncn5C)COC4)c3)n[nH]c12)N1CC[C@@H](F)C1` (single isomer, unassigned) [Example D9], the Ki on C-CBL (residues 46-435) came out at 71.8 nM. Moreover, the EC50 on CBL-B (setting [1]) was determined as 627 nM.

For the compound `Cn1cnnc1CC1(c2cccc(-c3n[nH]c4ncc(C(F)(F)F)cc34)c2)COC1` [Example B3, 3-(3-{3-[(4-methyl-4H-1,2,4-triazol-3-yl)methyl]oxetan-3-yl}phenyl)-5-(trifluoromethyl)-1H-pyrazolo[3,4-b]pyridine], the Ki on C-CBL (residues 46-435) worked out at 363 nM. Besides, on CBL-B (setting [1]), the EC50 was 1710 nM.

On to `C[C@@H](N[C@H]1C[C@H](O)C1)c1nc(C(F)(F)F)cc2c(-c3cccc([C@H](c4nncn4C)C4CCC4)c3)n[nH]c12` (single isomer, unassigned) [Example C92], for which, on C-CBL (residues 46-435), the Ki amounted to 50 nM. The EC50 on CBL-B (setting [2]) turned out to be 113 nM.

Regarding `C[C@@H]1CCCN(Cc2nc(C(F)(F)F)cc3c(-c4cccc(C5(Cc6nncn6C)COC5)c4)n[nH]c23)C1` [Example C29, 7-{[(3R)-3-methylpiperidin-1-yl]methyl}-3-(3-{3-[(4-methyl-4H-1,2,4-triazol-3-yl)methyl]oxetan-3-yl}phenyl)-5-(trifluoromethyl)-1H-pyrazolo[3,4-c]pyridine], the inhibition constant Ki on C-CBL (residues 46-435) worked out at 46.3 nM. Moreover, the EC50 on CBL-B (setting [1]) worked out at 204 nM.

As for `C[C@@H](N[C@@H]1CCC(F)(F)C1)c1nc(C(F)(F)F)cc2c(-c3cccc(C4(Cc5nncn5C)COC4)c3)n[nH]c12` (single isomer, unassigned) [Example C18], the Ki on C-CBL (residues 46-435) was found to be 15.1 nM. The figures for the EC50 on CBL-B (setting [2]) and at CBL-B (setting [1]) were 19 nM and 17 nM, respectively.

With `C[C@@H](N[C@@H]1CCC[C@@H]1O)c1nc(C(F)(F)F)cc2c(-c3cccc([C@H](c4nncn4C)C4CCC4)c3)n[nH]c12` (single isomer, unassigned) [Example D16], at C-CBL (residues 46-435), the Ki amounted to 24.5 nM. Also, the half-maximal effective concentration (EC50) at CBL-B (setting [1]) was found to be 18 nM.

Consider `Cn1cnnc1[C@@H](c1cccc(-c2n[nH]c3cnc(C(F)(F)F)cc23)c1)C1CCC1` [Example A1, 3-{3-[(R)-cyclobutyl(4-methyl-4H-1,2,4-triazol-3-yl)methyl]phenyl}-5-(trifluoromethyl)-1H-pyrazolo[3,4-c]pyridine], for which the inhibition constant (Ki) at C-CBL (residues 46-435) stood at 681 nM. The EC50 at CBL-B (setting [2]) was 1810 nM; on CBL-B (setting [1]), over 2990 nM.

In the case of `C[C@@H](NC1CCCC1)c1nc(C(F)(F)F)cc2c(-c3cccc([C@H](c4nncn4C)C4CCC4)c3)n[nH]c12` (single isomer, unassigned) [Example C11], the Ki on C-CBL (residues 46-435) was 3.7 nM. The 50% effective concentration (EC50) is 6 nM at CBL-B (setting [2]) and 5 nM at CBL-B (setting [1]).

`C[C@H](N[C@H]1CCC(F)(F)C1)c1nc(C(F)(F)F)cc2c(-c3cccc(C4(Cc5nncn5C)COC4)c3)n[nH]c12` (single isomer, unassigned) [Example C12]: on C-CBL (residues 46-435), the Ki was 1.3 nM. In addition, the EC50 turned out to be 8 nM at CBL-B (setting [2]) and 4 nM at CBL-B (setting [1]).

With `C[C@H]1CN(Cc2nc(C(F)(F)F)cc3c(-c4cccc([C@H](c5nncn5C)C5CCC5)c4)n[nH]c23)CCO1` [Example C6, 3-{3-[(R)-cyclobutyl(4-methyl-4H-1,2,4-triazol-3-yl)methyl]phenyl}-7-{[(2S)-2-methylmorpholin-4-yl]methyl}-5-(trifluoromethyl)-1H-pyrazolo[3,4-c]pyridine], the Ki at C-CBL (residues 46-435) was found to be 256 nM. Also, the EC50 on CBL-B (setting [1]) was 115 nM.

As to `C[C@H]1CCCN(Cc2nc(C(F)(F)F)cc3c(-c4cccc([C@H](c5nncn5C)C5CCC5)c4)n[nH]c23)C1` [Example C7, 3-{3-[(R)-cyclobutyl(4-methyl-4H-1,2,4-triazol-3-yl)methyl]phenyl}-7-{[(3S)-3-methylpiperidin-1-yl]methyl}-5-(trifluoromethyl)-1H-pyrazolo[3,4-c]pyridine], the Ki at C-CBL (residues 46-435) is 53.1 nM. The concentration for a half-maximal effect (EC50) at CBL-B (setting [1]) was 58 nM.

Turning to `CC(NC1CNC1)c1nc(C(F)(F)F)cc2c(-c3cccc(C4(Cc5nncn5C)COC4)c3)n[nH]c12` (single isomer, unassigned) [Example C27, N-{(1ξ)-1-[3-(3-{3-[(4-methyl-4H-1,2,4-triazol-3-yl)methyl]oxetan-3-yl}phenyl)-5-(trifluoromethyl)-1H-pyrazolo[3,4-c]pyridin-7-yl]ethyl}azetidin-3-amine], the Ki on C-CBL (residues 46-435) amounted to 76 nM. Besides, the EC50 at CBL-B (setting [1]) is over 1290 nM.

Turning to `C[C@@H](N[C@H]1CC[C@@H]1O)c1nc(C(F)(F)F)cc2c(-c3cccc([C@H](c4nncn4C)C4CCC4)c3)n[nH]c12` (single isomer, unassigned) [Example D22], the inhibition constant Ki at C-CBL (residues 46-435) is 5.8 nM. For the same compound, the EC50 was 12 nM on CBL-B (setting [2]) and 5 nM on CBL-B (setting [1]).

For `C[C@@H](N[C@H]1CCOC1)c1nc(C(F)(F)F)cc2c(-c3cccc([C@H](c4nncn4C)C4CCC4)c3)n[nH]c12` (single isomer, unassigned) [Example C3], on C-CBL (residues 46-435), the Ki turned out to be 52.1 nM. At CBL-B (setting [1]), the EC50 was over 159 nM.

Turning to `C[C@@H](N[C@H]1CCC(F)(F)C1)c1nc(C(F)(F)F)cc2c(-c3cccc([C@H](c4nncn4C)C4CCC4)c3)n[nH]c12` [Example C9], the inhibition constant (Ki) on C-CBL (residues 46-435) came to 85.2 nM. Besides, the EC50 at CBL-B (setting [2]) and at CBL-B (setting [1]) was 32 nM in each case.

On to `Cn1cnnc1[C@@H](c1cccc(-c2n[nH]c3c(CNC4CCCC4)nc(C(F)(F)F)cc23)c1)C1CCC1` [Example D4], for which, on C-CBL (residues 46-435), the Ki came out at 54.8 nM. The EC50 on CBL-B (setting [1]) was 72 nM.

In the case of `C[C@H](c1nc(C(F)(F)F)cc2c(-c3cccc(C4(Cc5nncn5C)COC4)c3)n[nH]c12)N1CCO[C@@H](C)C1` (single isomer, unassigned) [Example D12], at C-CBL (residues 46-435), the Ki worked out at 52.9 nM. Moreover, the EC50 at CBL-B (setting [1]) was determined as 612 nM.
